Laboratory results from patent publication US20250160718A1, “SYSTEMS AND METHODS FOR HIGH-DENSITY LONG-TERM INTRACELLULAR ELECTROPHYSIOLOGY” (President and Fellows of Harvard College, priority 2022, published 2025).

Assays:
[1] = system: MDCK cells
Description: This example describes a technique that uses cross-electrode impedance mapping to quantify adhesion or adherence of cells in a cell culture. The terms “adhesion” and “adherence” may be used interchangeably herein.
In this example, ethylenediaminetetraacetic acid (EDTA) was applied to the cells. EDTA is a calcium chelator that removes Ca^2+ needed for integrin proteins to maintain cell adhesion. With EDTA applied, the cells quickly detached over a duration of time of about 50 min. The EDTA was then washed out by adding normal culture media, where the cells re-attached over a duration of time of about 200 min.
FIG. 6b is a data plot showing mean normalized impedance values over time for different regions of a map 601 of an electrode array in the cell culture. FIG. 6c show histograms of the normalized impedance values before, during, and after a washout of EDTA across the electrode array.

[2] = system: MDCK cells; experiment: Wound healing assay (electrochemical patterning and cross-electrode impedance mapping of regrowth); assay type: cell-based, Canine; details: 1 μM, over the course of 72 hours; control culture shows regrowth after 72 hours
Source text: This example describes a combined application of cross-electrode impedance mapping and cell patterning for a wound healing assay. Such assays may be used to gauge cell growth rate and metabolism and may be useful for screening drugs affecting these parameters. Compared to the electrochemical patterning described herein, other tools mechanically generate a wound in a cell culture via a mechanical scratch which is both difficult to control and limiting in terms of wound pattern.
In this example, a wound is made in MDCK cells and then growth is mapped in real time. […] These patterns were defined by applying electrode currents of −10 nA for 40 s versus a Ag/AgCl pseudo reference electrode. The regrowth of the culture was then measured using the impedance mapping method.

Compound | duration of time over which the cells detached ([1]; 5 mM EDTA application) | duration of time over which the cells re-attached after washout ([1]; EDTA washed out by adding normal culture media) | regrowth of the culture into the wound [2]
O=C(O)CN(CCN(CC(=O)O)CC(=O)O)CC(=O)O [EDTA, ethylenediaminetetraacetic acid] | about 50 min | about 200 min | –
C=C1[C@@H](C)[C@H]2[C@H](Cc3ccccc3)NC(=O)[C@]23OC(=O)/C=C/[C@H](O)CCC[C@@H](C)C/C=C/[C@H]3[C@@H]1O [cytochalasin B] | – | – | very little growth
